These results are taken from patent US9360484B2, “Anti-FcRH5 antibodies and immunoconjugates and methods of use” (Genentech, Inc., priority 2009, dated 2016).

For data set [1], the system named is OPM2-FcRH5 tumors (OPM2 multiple myeloma cells stably transfected with human FcRH5). The experiment in a line: OPM2-FcRH5 xenograft: Hu anti-FcRH5 10A8-MC-vc-PAB-MMAE in combination with Revlimid and Revlimid plus Dexamethasone. Type of data set: in vivo, CB17 ICR SCID mice. Particulars: for CR (mice with Complete Remission: tumor volume dropped to 0 mm^3) / PR (mice with Partial Regression: tumor volume dropped below 50% of day 0) / TI (number of observable tumors at end of study): 38 day time course, ADC 6 mg/kg single IV day 0, Revlimid 50 mg/kg IP daily, Dexamethasone 3 mg/kg PO; for percent body weight change (FIG. 44): first 17 days. From the text: Specifically, the ability of the antibody in combination with Revlimid® and Revlimid® plus Dexamethasone to regress tumors in OPM2 cells (Multiple myeloma cell line) stably transfected with human FcRH5 was examined. After transfection of linearized pRK.CMV.PD.nbe.FcRH5 into OPM2 cells and puromycin (Calbiochem, San Diego, Calif.) selection, surviving cells were separated for FcRH5 expressing cells with biotin (Pierce Biotechnology, Rockford, Il) labeled anti-FcRH5.7D11 and MACS anti-Biotin microbeads on an MACS LS column (Miltenyi Biotec, Auburn, Calif.).
For analysis of efficacy of Hu anti-FcRH5 10A8 conjugated to -MC-vc-PAB-MMAE in combination with Revlimid® and Revlimid® plus Dexamethasone, female CB17 ICR SCID mice (6-8 weeks of age from Charles Rivers Laboratories; Hollister, Calif.) were inoculated subcutaneously with 2×10^7 OPM2-FcRH5 cells via injection into the flanks of CB17 ICR SCID mice and the xenograft tumors were allowed to grow to an average of 446 mm^3. Day 0 refers to the day the tumors were 263-630 mm^3 and when the first/or only dose of treatment was administered, unless indicated specifically below. Tumor volume was calculated based on two dimensions, measured using calipers, and was expressed in mm3 according to the formula: V=0.5a×b^2, where a and b are the long and the short diameters of the tumor, respectively. Data collected from each experimental group were expressed as mean+SE. Mice were randomized into nine groups of 8 mice each and dosed. Group 1 received daily intraperitoneal (IP) injections of a mixture of DMSO and MCT buffer on Days 0-13 as a vehicle control. […] Group 4 received daily IP injections of 50 mg/kg Revlimid® on Days 0-13. Group 5 received daily oral (PO) dosing of 3 mg/kg Dexamethasone for four days followed by three days off for two cycles on Days 0-3 and 7-10. Group 6 received daily IP injections of 50 mg/kg Revlimid® on Days 0-13 plus daily PO dosing of 3 mg/kg Dexamethasone for four days followed by three days off for two cycles on Days 0-3 and 7-10. […] Tumors were measured twice a week throughout the experiment. Body weights of mice were measured twice a week throughout the experiment. If mice experienced a body weight loss of greater than 15% compared to their body weight on Day 0, mice were weighed daily until weight regained or until body weight loss reached greater than 20%. […] All animal protocols were approved by an Institutional Animal Care and Use Committee (IACUC).

The test system is the same in data set [2]. The experiment in a line: OPM2-FcRH5 xenograft: Hu anti-FcRH5 10A8-SPDB-DM4 alone and in combination with Velcade. Type of data set: in vivo, CB17 ICR SCID mice. The source says:
Specifically, the ability of the antibody and Velcade® to regress tumors in OPM2 cells (Multiple myeloma cell line) stably transfected with human FcRH5 was examined. After transfection of linearized […]5 into OPM2 cells and puromycin (Calbiochem, San Diego, Calif.) selection, surviving cells were separated for FcRH5 expressing cells with biotin (Pierce Biotechnology, Rockford, Il) labeled anti-FcRH5.7D11 and MACS anti-Biotin microbeads on an MACS LS column (Miltenyi Biotec, Auburn, Calif.). […] Data collected from each experimental group were expressed as mean±SE. Mice were randomized into six groups of 9 mice each and dosed. […] Group 2 received a single IV injection of histidine buffer on Day 0 plus IV injections of 0.9% sodium chloride (saline) twice weekly for two weeks on Days 0, 3, 7, and 10 as a vehicle control. […] Tumors were measured twice a week throughout the experiment. Body weights of mice were measured twice a week for the first three weeks. […] All animal protocols were approved by an Institutional Animal Care and Use Committee (IACUC).

A further data set relates to OPM2-FcRH5 tumors. As to the kind of experiment: Inhibition of in vivo tumor growth, OPM2-FcRH5 xenografts, hu10A8-MC-vc-PAB-MMAE alone and in combination with Velcade (Example 8, Table 14). On the set-up: species or system CB17 ICR SCID mice. From the text:
Specifically, the ability of the antibody and Velcade® to regress tumors in OPM2 cells (Multiple myeloma cell line) stably transfected with human FcRH5 was examined. After transfection of linearized pRK.CMV.PD.nbe.FcRH5 into OPM2 cells and puromycin (Calbiochem, San Diego, Calif.) selection, surviving cells were separated for FcRH5 expressing cells with biotin (Pierce Biotechnology, Rockford, Il) labeled anti-FcRH5.7D11 and MACS anti-Biotin microbeads on an MACS LS column (Miltenyi Biotec, Auburn, Calif.).
For analysis of efficacy of hu anti-FcRH5 10A8 conjugated with MC-vc-PAB-MMAE alone and in combination with Velcade®, female CB17 ICR SCID mice (6-8 weeks of age from Charles Rivers Laboratories; Hollister, Calif.) were inoculated subcutaneously with 2×10^7 OPM2-FcRH5 cells via injection into the flanks of CB17 ICR SCID mice and the xenograft tumors were allowed to grow to an average of 331 mm^3. Day 0 refers to the day the tumors were 172-511 mm^3 and when the first/or only dose of treatment was administered, unless indicated specifically below. Tumor volume was calculated based on two dimensions, measured using calipers, and was expressed in mm3 according to the formula: V=0.5a×b^2, where a and b are the long and the short diameters of the tumor, respectively. Data collected from each experimental group were expressed as mean±SE. Mice were randomized into nine groups of 9 mice each and dosed. Group 1 received a single intravenous (IV) injection of histidine buffer on Day 0 plus IV injections of 0.9% sodium chloride (saline) twice weekly for two weeks on Days 0, 3, 7, and 10 as a vehicle control. […] Group 3 received IV injections of 1 mg/kg Velcade® twice weekly for two weeks on Days 0, 3, 7, and 10. Group 4-5 received a single IV injection of 4 or 10 mg/kg thio hu anti-FcRH5(10A8)-HC-MC-vc-PAB-MMAE, CNJ 1465, respectively, on Day 0. […] Tumors were measured twice a week throughout the experiment. Body weights of mice were measured twice a week for the first three weeks. […] All animal protocols were approved by an Institutional Animal Care and Use Committee (IACUC).

The next data set has as its system BJAB-FcRH5 tumors. The experiment in a line: In vivo tumor cell killing assay, BJAB-FcRH5 xenografts (Example 4). On the set-up: species or system CB17 ICR SCID mice. To be noted: unconjugated antibody, 10.8 mg/kg i.v. day 0 and day 7, 8 mice. How it is done:
To test the efficacy of various anti-FcRH5 antibodies, murine anti-human antibodies were conjugated to DM1 and the effect of the conjugated variant on tumors in mice were analyzed.
Specifically, the ability of the antibodies to regress tumors in BJAB-luciferase cells (Burkitt's lymphoma cell line stably transfected with human FcRH5.
After transfection of pRK.CMV.PD.nbe.FcRH5 into BJAB-luciferase cells and puromycin (Calbiochem, San Diego, Calif.) selection, surviving cells were FACS autocloned for mid range expressers with anti-FcRH5 antibodies (7D11). Post autoclone, the BJAB-luciferase cell line expressing FcRH5 most closely resembling plasma cell expression, as determined by FACS, was chosen by FACS analysis using anti-FcRH5 antibodies (7D11). As a negative control, BJAB-luciferase transfected, in the same manner, with the empty vector pRK.CMV.PD.nbe were used.
For analysis of efficacy mouse antibodies, female CB17 ICR SCID mice (6-8 weeks of age from Charles Rivers Laboratories; Hollister, Calif.) were inoculated subcutaneously with 2×10^7 BJAB-FcRH5 cells via injection into the flanks of CB17 ICR SCID mice and the xenograft tumors were allowed to grow to an average of 128 mm^3. Day 0 refers to the day the tumors were an average of 100-250 mm^3 and when the first/or only dose of treatment was administered, unless indicated specifically below. Tumor volume was calculated based on two dimensions, measured using calipers, and was expressed in mm^3 according to the formula: V=0.5a×b^2, where a and b are the long and the short diameters of the tumor, respectively. Data collected from each experimental group were expressed as mean±SE. Groups of 8 mice were treated with a weekly intravenous (i.v.) dose of 400 μg of antibody-linked drug/m^2 mouse (corresponding to ˜8-10 mg ADC/kg of mouse) with anti-FcRH5 ADC or control antibody-drug conjugates at day 0 and day 7. Tumors were measured twice a week throughout the experiment. Body weights of mice were measured either once a week throughout the experiment. […]

In the next data set the test system is cynomolgus FcRH5. The experiment in a line: Cyno cross-reactivity by FACS on stably transfected cells (SVT2 cells expressing cynoFcRH5). Type of data set: binding, cynomolgus monkey. Set-up: key to Cyno X-reactivity (FACS) on stable transfected cells: X*: *Very slight at saturating concentration. How it is done:
For additional FACS analysis of FcRH5 antibodies, 1.0 μg, 0.1 μg or 0.01 μg of antibody was titrated per million cells of BJAB cells stably expressing huFcRH5 and SVT2 cells stably expressing cynoFcRH5. Briefly, approximately 10^6 cells in 100 μl were incubated with varying amounts (1.0 ug, 01. ug or 0.01 ug) of murine Ab mu1H4, mu6H1, mu7D11, mu9E2, mu10A8, mu10F5, or mu13G9 per million cells of BJAB cells stably expressing huFcRH5 and SVT2 cells stably expressing cynoFcRH5. Incubation with 1.0 ug/10^6 cells of the appropriate Mu IgG isotype control was used as a negative control. PE conjugated Rat anti-MuIgG1 or Rat anti-MuIgG2a+b was used as the secondary detection antibody.
(A flow cytometer gives signals particle by particle.)

[3] abbreviates: 37 day time course, ADC 4 mg/kg single IV day 0, Velcade 1 mg/kg IV days 0, 3, 7, 10.
Setting [4] is: Velcade 1 mg/kg twice weekly for two weeks (Days 0, 3, 7, 10), OPM2-FcRH5 xenograft, CB17 ICR SCID mice.

cynomolgus FcRH5, sequence (as listed by the source): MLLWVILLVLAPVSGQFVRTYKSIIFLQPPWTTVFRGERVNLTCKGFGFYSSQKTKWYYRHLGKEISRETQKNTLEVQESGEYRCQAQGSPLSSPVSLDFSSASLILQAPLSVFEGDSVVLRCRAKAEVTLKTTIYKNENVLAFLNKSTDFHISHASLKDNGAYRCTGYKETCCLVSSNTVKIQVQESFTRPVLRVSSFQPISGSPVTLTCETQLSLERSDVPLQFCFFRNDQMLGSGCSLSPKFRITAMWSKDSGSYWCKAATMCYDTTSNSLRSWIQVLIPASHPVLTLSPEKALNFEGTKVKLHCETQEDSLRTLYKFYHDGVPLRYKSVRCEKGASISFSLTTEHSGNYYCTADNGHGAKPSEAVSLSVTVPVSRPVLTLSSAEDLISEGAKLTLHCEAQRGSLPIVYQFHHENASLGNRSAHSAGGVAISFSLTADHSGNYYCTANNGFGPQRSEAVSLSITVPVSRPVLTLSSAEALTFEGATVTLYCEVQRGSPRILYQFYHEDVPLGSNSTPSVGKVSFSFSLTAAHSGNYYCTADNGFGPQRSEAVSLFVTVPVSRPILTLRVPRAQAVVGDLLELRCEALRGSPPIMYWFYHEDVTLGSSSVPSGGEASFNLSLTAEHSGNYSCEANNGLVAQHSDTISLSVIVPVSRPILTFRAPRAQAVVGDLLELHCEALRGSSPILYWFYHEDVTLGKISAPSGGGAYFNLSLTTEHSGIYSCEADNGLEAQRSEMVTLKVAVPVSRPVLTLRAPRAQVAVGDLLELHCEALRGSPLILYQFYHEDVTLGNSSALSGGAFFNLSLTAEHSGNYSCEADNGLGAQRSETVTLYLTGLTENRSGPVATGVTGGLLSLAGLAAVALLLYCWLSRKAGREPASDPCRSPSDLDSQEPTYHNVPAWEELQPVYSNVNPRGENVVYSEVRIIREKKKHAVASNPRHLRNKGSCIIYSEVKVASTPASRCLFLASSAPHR

As to `C[C@@H]1C[C@H]2[C@@H]3CCC4=CC(=O)C=C[C@]4(C)[C@@]3(F)[C@@H](O)C[C@]2(C)[C@@]1(O)C(=O)CO` [Dexamethasone], in data set [1], the “CR (mice with Complete Remission: tumor volume dropped to 0 mm^3)” value came out at 0, the “PR (mice with Partial Regression: tumor volume dropped below 50% of day 0)” value is 0, the “TI (number of observable tumors at end of study)” value is recorded as 5/5 and the “percent body weight change (FIG. 44)” value was “caused a significant decrease in body weight or weight loss”.
Take `Nc1cccc2c1CN(C1CCC(=O)NC1=O)C2=O` (stereo not drawn) [Revlimid, lenalidomide]: in data set [1], the “CR (mice with Complete Remission: tumor volume dropped to 0 mm^3)” value was found to be 0, the “PR (mice with Partial Regression: tumor volume dropped below 50% of day 0)” value came to 0, the “TI (number of observable tumors at end of study)” value is on record as 4/4 and the “percent body weight change (FIG. 44)” value is recorded as “caused a significant decrease in body weight or weight loss”.
For the molecule `CC(C)C[C@H](NC(=O)[C@H](Cc1ccccc1)NC(=O)c1cnccn1)B(O)O` [Velcade ®], in data set [2] (setting [3]), the “CR (mice with Complete Remission: tumor volume dropped to 0 mm^3)” value is listed as 0, the “PR (mice with Partial Regression: tumor volume dropped below 50% of day 0)” value came to 0 and the “TI (number of observable tumors at end of study)” value is given as 8/8. In the data set on OPM2-FcRH5 tumors (setting [4]), the “CR (Complete Remission; number of mice with tumor volume dropped to 0 mm^3)” value is reported as 0, the “PR (Partial Regression; number of mice with tumor volume below 50% of day 0 volume)” value is given as 0 and the “TI (number of observable tumors at end of study)” value was 9/9.
As for `CC(C)C[C@H](NC(=O)[C@H](Cc1ccccc1)NC(=O)c1cnccn1)B(O)O` [Velcade®, bortezomib], the “percent body weight change (FIG. 42)” value in data set [2] (first 21 days) is listed as “did not cause a significant decrease in body weight or weight loss”. In addition, the “percent body weight change” value in the data set with OPM2-FcRH5 tumors (first 24 days, 1 mg/kg IV twice weekly for two weeks) is listed as “caused a decrease in body weight or weight loss through the duration of treatment, but weight rebounded after dosing was complete”.

B1: 7D11: murine monoclonal antibody binding human FcRH5 (antibody, V domains shown)
VH: EVQLVESGGGLVQPGGSLKLSCAASGFTFSSYGMSWVRQTPDKRLELVATITRNGGTTYYLDSVKGRFTISRDNAKNTLYLQMSSLKSEDTAMYYCARGPIYYDYGYAMDYWGQGTTVTVSS
VL: DILLTQSPAILSVSPGERVSFSCRSSQSIGTNIHWYQQRTNGSPRLLIKFASESLSGIPSRFSGSGSGTDFTLSINSVESEDFADYYCQQSNSWPLTFGAGTKVEIK
For the molecule B1, in the data set with BJAB-FcRH5 tumors, the “CR (Complete Remission, number of mice)” value is listed as 0; the “PR (Partial Regression, number of mice)” value worked out at 0; the “TI (number of observable tumors at end of study)” value is 8/8. In the data set on cynomolgus FcRH5, the “Cyno X-reactivity (FACS) on stable transfected cells” value is “X*”. The “cross reaction with cynomolgus FcRH5 by FACS analysis” value in the data set with cynomolgus FcRH5 (1.0, 0.1 or 0.01 μg antibody per million SVT2 cells stably expressing cynoFcRH5) is “cross react with cynomolgus FcRH5”.
